Results reported in US20260253225A1, “OPTICAL SYSTEM AND METHOD FOR MONITORING ABNORMALITY ASSOCIATED PARAMETERS IN CELL-CONTAINING SAMPLES” (priority 2023, published 2026).

Legend:
[1] = test system: primary lymphocytes (benign), CD8 (malignant) and Jurkat (malignant) cells; assay: TIRF microscopy of cell membrane fluctuations in a model of the immune synapse; type: cell-based, human; details: frequency ranges 0-5 Hz and 10-25 Hz, before and after Mibefradil treatment
Source text: So far, intracellular fluctuations as captured by the motion of intracellular particles or by the cell boundaries were described. The fluctuations of the cell membrane may have an impact on the formation and function of the immune synapse that forms between T cells and antigen presenting cells (APCs). To study such a possible impact, the inventors measured fluctuations of Jurkat cells at their interface with coverslips coated with αCD3ε antibodies. Such coverslips often serve as a model for the immune synapse, as the cells spread on the coverslips and get robustly activated. The membrane of the cells was stained with an αCD45 primary antibody, labeled with Alexa647 and imaged by time-lapse TIRF microscopy. […] The reflection light was detected using an avalanche photodiode (APD) with a band-pass filter of 650-720 nm. […] Fluorescence intensity of each pixel in each image was normalized by dividing its intensity with the average intensity of that time-dependent image. The temporal fluctuations of the normalized fluorescence intensities were analyzed by DFT for each pixel in a ROI. […] Live cells were measured without and after ATP depletion, while fixed cells served for control. […] The temporal fluctuations of the normalized fluorescence intensities were analyzed via DFT for each pixel in that ROI. […]

[2] = test system: surface of aggregation of cells; assay: Dynamic reflective laser speckled imaging of cell surface vibrations; type: cell-based; details: before and after mibefradil treatment, 0-5 Hz range
Source text: The inventors have used the above-described imaging system 120 (the experimental set up was built by modifying an inverted fluorescence microscope set up) to acquire the sequence of tissue's images-one such image is shown in FIG. 19A. The image data analysis described above were then used to determine cell vibrations at the surface of aggregation of cells before and after the augmentation of cell membrane vibrations using mibefradil. […] FIGS. 19C and 19D show power fit parameters for the ASD analysis results in the cells (shown in FIG. 19B) before and after mibefradil treatment: parameter b (FIG. 19C) and sum of amplitudes in the 0-5 Hz range (FIG. 19D). Multiple areas of cells (N=14) were measured and compared each before and after mibefradil treatment.

live Jurkat cells = assay: DIC microscopy of intracellular particles motion (ASD/PSD and MSD analysis); type: cell-based, human; details: 10 μM blebbistatin treatment, compared with ATP depletion
Method: In the following experimental results of the spectral analysis of position fluctuations in time of intracellular particles in Jurkat T lymphocytes, each cell before and after ATP depletion, are presented. […] Depletion of cellular ATP was induced by 30 min incubation with 0.2 μM of the mitochondrial complex 1 inhibitor Rotenone (Sigma-Aldrich, St. Louis, MO, United States) together with 10 mM glycolysis inhibitor 2-deoxy-D-glucose (Sigma-Aldrich, St. Louis, MO, United States). For the visualization and monitoring of intracellular objects, including vesicles, Differential Interference Contrast (DIC) microscopy was employed. Reference is made to FIG. 6a where DIC image of a representative live Jurkat cell is shown. […]
After thresholding the objects, the x and y positions of each identified particle at each point of time (determined by the MultiTracker plug in) were recorded (FIGS. 6c-6e). […] Then, the DFT of these time dependent position changes were calculated for each spatial dimension. The average DFT amplitudes of all moving particles in each cell under each condition were determined for the x and y spatial dimensions. […]
From the position results of the detected intracellular particles, the MSD values for time-lags from 0.3 to 3 s (with a 0.3 s gradual increase) were calculated. The average MSD values were determined for that series of time-lags for each cell before and after ATP depletion. […]

COCC(=O)O[C@]1(CCN(C)CCCc2nc3ccccc3[nH]2)CCc2cc(F)ccc2[C@@H]1C(C)C [Mibefradil]
cell membrane vibrations (average DFT amplitudes) [1]: increases cell membrane vibrations in all cell types | mechanical vibrations of the cells' membrane [2]: an increase in mechanical vibrations of the cells' membrane

Cc1ccc2c(c1)C(=O)C1(O)CCN(c3ccccc3)C1=N2 (stereo not drawn) [blebbistatin]
effects on intracellular motion (live Jurkat cells): effects on intracellular motion of blebbistatin treatment and ATP depletion were similar
